According to PMC11784839, “Monoaminergic neurotransmitters are bimodal effectors of tau aggregation” (Science Advances, 2025):

Biological target: tau (Homo sapiens, UniProt P10636)
Assay: MCE Phenols Library screening, tau biosensor cell seeding assay (AvZ)
Assay type: cell-based
Conditions: for AvZ (average z score of seeding, SDs from the mean level of seeding): 10 μM phenol in cell cultures, AD brain homogenate preincubated 16 hours, two biological replicates, positive = catalyzes seeding, negative = inhibits; for Z repl 1 / Z Repl 2: Z score; for Z repl 1 / raw data 1: replicate 1; for Z Repl 2 / raw data 2: replicate 2
[1] = average puncta of the two replicates
[2] = average Z score of the two replicates, tau seeding

Sequence of tau (P10636 623-695 limits assumed): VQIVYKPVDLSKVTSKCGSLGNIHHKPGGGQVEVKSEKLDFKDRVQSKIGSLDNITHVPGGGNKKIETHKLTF

SMILES	AvZ (average z score of seeding, SDs from the mean level of seeding)	Z repl 1	Z Repl 2	av puncta (average of raw data 1 and 2)	raw data 1 (puncta)	raw data 2 (puncta)	av Z (average Z score of the two replicates, tau biosensor seeding, MCE Phenols Library screen)	av puncta [1]	av Z [2]	av Z (average Z score of the two replicates, MCE Phenols Library screen)	raw data 1 (raw puncta)	raw data 2 (raw puncta)	av Z (average Z score of two replicates, Phenols Library screen)
O=C(O)Cc1ccccc1O [2-Hydroxyphenylacetic acid]	-0.831	-1.341	-0.32	9796.98	10246.8	9347.15	–	–	–	–	–	–	–
COc1cc2c(cc1O)CC[C@@H]1[C@@H]2CC[C@]2(C)[C@@H](O)CC[C@@H]12 [2-Methoxyestradiol]	–	1.646	0.7	33178.1	46109.4	20246.7	1.173	–	–	–	–	–	–
OCCc1ccccc1 [2-Phenylethanol]	0.671	1.167	0.175	27499.2	40362.2	14636.1	–	–	–	–	–	–	–
CC(=O)c1ccc(O)c(O)c1 [3',4'-Dihydroxyacetophenone]	-0.667	-0.338	-0.997	–	22292.7	2117.17	–	12205	–	–	–	–	–
COc1cc(/C=C/c2ccc(O)c(O)c2)cc(OC)c1 [3'-Hydroxypterostilbene]	–	-0.14	0.484	21302.3	24671.3	17933.3	–	–	0.172	–	–	–	–
O=c1c(-c2ccc(O)c(O)c2)coc2c([C@@H]3O[C@H](CO)[C@@H](O)[C@H](O)[C@H]3O)c(O)ccc12 [3'-Hydroxypuerarin]	–	-0.715	-0.346	–	17766.4	9073.25	–	13419.8	–	-0.53	–	–	–
COc1cc(-c2coc3c([C@@H]4O[C@H](CO)[C@@H](O)[C@H](O)[C@H]4O)c(O)ccc3c2=O)ccc1O [3'-Methoxypuerarin]	–	0.567	-0.096	22452.2	33160	11744.3	–	–	0.236	–	–	–	–
COc1cc(O)cc(OC)c1 [3,5-Dimethoxyphenol]	0.275	0.645	-0.096	22916.8	34097.4	11736.1	–	–	–	–	–	–	–
O=C(O)CCc1cccc(O)c1 [3-(3-Hydroxyphenyl)propionic acid]	1.337	1.121	1.553	34577.7	39805	29350.4	–	–	–	–	–	–	–
N[C@@H](Cc1ccc(O)c(Cl)c1)C(=O)O [3-Chloro-L-tyrosine]	-0.032	0.451	-0.515	19517.9	31767.4	7268.49	–	–	–	–	–	–	–
O=Cc1cccc(O)c1 [3-Hydroxybenzaldehyde]	-0.137	0.08	-0.354	18142.7	27305.1	8980.23	–	–	–	–	–	–	–
O=C(O)c1cccc(O)c1 [3-Hydroxybenzoic acid]	-0.814	-0.749	-0.88	10365.4	17360.5	3370.33	–	–	–	–	–	–	–
O=C(O)CNC(=O)c1cccc(O)c1 [3-Hydroxyhippuric acid]	0.023	0.493	-0.448	20125.5	32267.3	7983.73	–	–	–	–	–	–	–
O=C(O)Cc1cccc(O)c1 [3-Hydroxyphenylacetic acid]	-0.027	0.164	-0.218	19376.5	28313.1	10440	–	–	–	–	–	–	–
COc1cc(CCN)ccc1O [3-Methoxytyramine]	-0.304	0.052	-0.661	–	–	–	–	16341.1	–	–	26971.9	5710.28	–
Cc1cccc(O)c1O [3-Methylcatechol]	-0.42	-0.458	-0.383	–	–	–	–	14763.7	–	–	20851.2	8676.12	–
N[C@@H](Cc1ccc(O)c([N+](=O)[O-])c1)C(=O)O [3-Nitro-L-tyrosine]	1.177	0.936	1.418	32750.4	37588.7	27912.2	–	–	–	–	–	–	–
COC(=O)[C@]1(O)C[C@@H](O)[C@@H](O)[C@H](OC(=O)/C=C/c2ccc(O)c(O)c2)C1 [3-O-Caffeoylquinic acid methyl ester]	–	-0.373	0.274	18786.4	21876.3	15696.4	–	–	–	–	–	–	-0.049
COc1cc(C(=O)O)cc(O)c1O [3-O-Methylgallic acid]	-0.786	-1.04	-0.532	10472	13858.8	7085.12	–	–	–	–	–	–	–
O=c1cc(-c2ccc(O)cc2)oc2cccc(O)c12 [4',5-Dihydroxyflavone]	–	0.443	0.397	24336.3	31664.4	17008.3	–	–	0.42	–	–	–	–
